The NIST ThermoML archive (doi:10.1021/je3007666)
Numbers after ± are expanded uncertainties.

Experiments:
[1] = relative permittivity at zero frequency (dimensionless); conditions: 100 kPa, Liquid, Dielectrometer
[2] = relative permittivity at zero frequency (dimensionless); xn = mol fraction of the nth substance listed; conditions: 100 kPa, Liquid, Dielectrometer

| SMILES | relative permittivity at zero frequency ([1]; 288.15 K) | relative permittivity at zero frequency ([1]; 293.15 K) | relative permittivity at zero frequency ([1]; 298.15 K) | relative permittivity at zero frequency ([1]; 303.15 K) | relative permittivity at zero frequency ([1]; 308.15 K) | relative permittivity at zero frequency ([2]; 288.15 K, x2 = 0) | relative permittivity at zero frequency ([2]; 293.15 K, x2 = 0) | relative permittivity at zero frequency ([2]; 298.15 K, x2 = 0) | relative permittivity at zero frequency ([2]; 303.15 K, x2 = 0) | relative permittivity at zero frequency ([2]; 308.15 K, x2 = 0) | other results |
| --- | --- | --- | --- | --- | --- | --- | --- | --- | --- | --- | --- |
| CC(C)CO [2-methyl-1-propanol] | 19.51 ± 0.06 | 18.71 ± 0.06 | 17.96 ± 0.06 | 17.23 ± 0.06 | 16.53 ± 0.06 |  |  |  |  |  |  |
| CCC(C)O (stereo not given) [butan-2-ol] + CC(C)CO |  |  |  |  |  |  |  |  |  |  | relative permittivity at zero frequency ([2]; 288.15 K, x1 = 1): 18.47 ± 0.06; relative permittivity at zero frequency ([2]; 293.15 K, x1 = 1): 17.51 ± 0.06; relative permittivity at zero frequency ([2]; 298.15 K, x1 = 1): 16.6 ± 0.06; relative permittivity at zero frequency ([2]; 303.15 K, x1 = 1): 15.75 ± 0.06; relative permittivity at zero frequency ([2]; 308.15 K, x1 = 1): 14.94 ± 0.06 |
| CCC(C)O (stereo not given) [butan-2-ol] + CC(C)(C)O |  |  |  |  |  | 18.47 ± 0.06 | 17.51 ± 0.06 | 16.6 ± 0.06 | 15.75 ± 0.06 | 14.94 ± 0.06 |  |
| CC(C)(C)O [2-methylpropan-2-ol] | 14.49 ± 0.06 | 13.38 ± 0.06 | 12.49 ± 0.06 | 11.34 ± 0.06 | 10.4 ± 0.06 |  |  |  |  |  |  |
| CCCCO [butan-1-ol] + CCC(C)O |  |  |  |  |  | 19.01 ± 0.06 | 18.28 ± 0.06 | 17.58 ± 0.06 | 16.91 ± 0.06 | 16.26 ± 0.06 |  |
| CCC(C)O (stereo not given) [butan-2-ol] | 18.47 ± 0.06 | 17.51 ± 0.06 | 16.6 ± 0.06 | 15.75 ± 0.06 | 14.94 ± 0.06 |  |  |  |  |  |  |
| CC(C)(C)O [2-methylpropan-2-ol] + CC(C)CO |  |  |  |  |  |  |  |  |  |  | relative permittivity at zero frequency ([2]; 288.15 K, x1 = 1): 14.49 ± 0.06; relative permittivity at zero frequency ([2]; 293.15 K, x1 = 1): 13.38 ± 0.06; relative permittivity at zero frequency ([2]; 298.15 K, x1 = 1): 12.49 ± 0.06; relative permittivity at zero frequency ([2]; 303.15 K, x1 = 1): 11.34 ± 0.06; relative permittivity at zero frequency ([2]; 308.15 K, x1 = 1): 10.4 ± 0.06 |
| CCCCO [butan-1-ol] + CC(C)(C)O |  |  |  |  |  | 19.01 ± 0.06 | 18.28 ± 0.06 | 17.58 ± 0.06 | 16.91 ± 0.06 | 16.26 ± 0.06 |  |
| CCCCO [butan-1-ol] | 19.01 ± 0.06 | 18.28 ± 0.06 | 17.58 ± 0.06 | 16.91 ± 0.06 | 16.26 ± 0.06 |  |  |  |  |  |  |
| CCCCO [butan-1-ol] + CC(C)CO |  |  |  |  |  | 19.01 ± 0.06 | 18.28 ± 0.06 | 17.58 ± 0.06 | 16.91 ± 0.06 | 16.26 ± 0.06 |  |
